Measured values as given in patent publication US20090264470A1 (priority 2006, published 2009).

How the values were obtained:
[1] = Body weight of diet-induced obese male C57BL/6J mice, repeated oral dosing for 28 days; type: in vivo, mouse; conditions: Dunnett's test p<0.001; doses as in Table 2
Procedure: Sibutramine, which is currently used clinically, and rimonabant, which has recently received regulatory approval for the management of obesity were used as reference compounds.
Sixty-five C57BL/6J mice (7-8 weeks of age) were ordered from Charles River, Margate, Kent. Mice were group housed in polypropylene cages with free access to a high fat diet (D12451 45% of Kcal derived from fat; Research Diets, New Jersey, USA) and tap water at all times. Animals were maintained at 21±4° C. and 55±20% humidity on a normal phase 12 h light-dark cycle (lights on 04:30 h)
Animals were exposed to the high fat diet for 16 weeks. During this time body weight was recorded weekly. […] Body weight and food and water intake was recorded daily. […]
Body weight and food and water intake were recorded daily. Following drug administration the animals were examined and any overt behaviour was recorded. […]
The test compounds were dissolved in 1% methylcellulose. […] Drug doses were expressed as free base.
Resulting body weights, food intake and water intake were expressed as mean values±SEM, and the SEMs are calculated from residuals of the statistical model. Body weight data was analysed by ANCOVA with Day 1 as covariate followed by appropriate comparisons (two-tailed) to determine significant differences from the control group. […] Daily food and water intake data was analysed by ANOVA.

[2] = Acute administration: wet mash and food intake and 24 h body weight in lean male C57BL/6J mice; type: in vivo, mouse; conditions: dosed orally at 10 mg/kg
Procedure: The goal of this study was to investigate the effects of various ratios of bupropion:(R)-norfluoxetine on body weight and food and water intake in male C57BL/6J mice habituated to the daily presentation of a palatable wet mash diet. […] Animals were maintained on normal-phase lighting. Test compounds were administered orally and measurements were made over the following 24 hours. All experiments included appropriate vehicle-treated control groups.
Sixty-two male C57BL/6J mice (weight range 20-25 g) were ordered from Harlan UK, Bicester, UK. The mice were individually housed in polypropylene cages at a temperature of 21±4° C. and 55%±20% humidity. Animals were maintained on a normal phase light-dark cycle (lights off for 12 h from 19:00-07:00 h) during which time the room was illuminated by red light. […] In addition, animals were habituated to a daily presentation of a wet mash diet (1 part powdered chow:1.5 parts tap water) placed on a dish on the cage floor. Animals were maintained under these conditions for at least ten days before experimentation commenced.
Typically an acute study was run each week with each study containing 60 animals. On the day prior to testing, the experimental animals were randomly allocated to suitable treatment groups. Animals were weighed and 2 h wet mash intake was calculated (to the nearest 0.1 g). […]
Drug administration occurred 60 minutes before the presentation of ‘wet mash’ which was at approximately 09:30 am. […] The mash was replaced with a fresh quantity of wet mash at the 4 hour time point. […] Wet mash was replaced with a known quantity of standard pellets at the 6 hour time point. […] Food and water intakes of the different groups of animals were measured concurrently. The animals were monitored at each reading and any overt drug-induced behavioural effects were recorded. […]
Results (body weights (g) at 0, 24 h; change in body weight (g) over 24; food and water intake at 1, 2, 4, 6 and 24 h and between 1-2 h, 2-4 h, 4-6 h) were expressed as mean values±SEM. […]

human CB1 receptors [3] = target: T1, human CB1 receptors (Homo sapiens, UniProt P21554); assay: Competition ligand binding assay, CHO-k1 cell membranes; conditions: human CB1 cell membranes (FIG. 6)
T1 construct: expressed in transfected cells; host or cells: CHO-k1 cells (membranes)
T1 sequence (P21554 whole entry): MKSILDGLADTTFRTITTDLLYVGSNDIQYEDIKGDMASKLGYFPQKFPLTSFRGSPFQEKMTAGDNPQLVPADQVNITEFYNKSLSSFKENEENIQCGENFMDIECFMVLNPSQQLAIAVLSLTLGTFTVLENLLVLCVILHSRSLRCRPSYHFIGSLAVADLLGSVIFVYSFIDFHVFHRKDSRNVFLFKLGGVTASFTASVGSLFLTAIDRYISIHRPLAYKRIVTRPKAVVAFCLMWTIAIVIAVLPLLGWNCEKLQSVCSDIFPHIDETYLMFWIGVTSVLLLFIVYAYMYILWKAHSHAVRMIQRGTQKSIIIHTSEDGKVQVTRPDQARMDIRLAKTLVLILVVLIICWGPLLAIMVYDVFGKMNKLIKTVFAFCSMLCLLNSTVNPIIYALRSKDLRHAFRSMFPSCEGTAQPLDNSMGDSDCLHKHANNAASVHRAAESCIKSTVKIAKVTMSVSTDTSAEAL
Procedure: (§1) Competition ligand binding assays were performed with the non-selective cannabinoid receptor agonist ([^3H]CP 55,940) (0.75 nM) in the binding buffer containing 50 mM Tris-HCl, pH 7.4, 3 mM MgCl2, 1 mM EDTA, 0.2% BSA using CHO-k1 cell membranes stably expressing human CB1 receptors or mouse brain membrane preparations in 96-well plate format. The receptor membranes (10 μg/well) were pre-incubated with different concentrations of tested compounds in the binding buffer at room temperature for 30 min prior to addition of 0.75 nM [^3H]CP 55,940 in a final volume of 100 μl. The binding was carried out at room temperature for another 2 h. To determine the non-specific binding, experiments were also performed in the presence of 10 μM unlabeled CP 55,940. Binding was terminated by addition of cold binding buffer and filtrated on Whatman GF/B glass-fiber filters using a sampling manifold. The filters were washed 6 times with cold binding buffer and air-dried overnight. The radioactivity was quantitated on a TopCounter (PerkinElmer) after adding scintillation fluid. Specific binding was defined as the difference between the binding in the presence and absence of 10 μM unlabeled CP 55, 940.

[4] = target: T2, mouse CB1 (mouse brain membrane) (Mus musculus, UniProt P47746); assay: Competition ligand binding assay, mouse brain membrane preparations; conditions: mouse brain membranes (FIG. 6)
T2 construct: human CB1 receptors or mouse brain membrane preparations in 96-well plate format; from tissue; host or cells: mouse brain membrane preparations
T2 sequence (P47746 whole entry): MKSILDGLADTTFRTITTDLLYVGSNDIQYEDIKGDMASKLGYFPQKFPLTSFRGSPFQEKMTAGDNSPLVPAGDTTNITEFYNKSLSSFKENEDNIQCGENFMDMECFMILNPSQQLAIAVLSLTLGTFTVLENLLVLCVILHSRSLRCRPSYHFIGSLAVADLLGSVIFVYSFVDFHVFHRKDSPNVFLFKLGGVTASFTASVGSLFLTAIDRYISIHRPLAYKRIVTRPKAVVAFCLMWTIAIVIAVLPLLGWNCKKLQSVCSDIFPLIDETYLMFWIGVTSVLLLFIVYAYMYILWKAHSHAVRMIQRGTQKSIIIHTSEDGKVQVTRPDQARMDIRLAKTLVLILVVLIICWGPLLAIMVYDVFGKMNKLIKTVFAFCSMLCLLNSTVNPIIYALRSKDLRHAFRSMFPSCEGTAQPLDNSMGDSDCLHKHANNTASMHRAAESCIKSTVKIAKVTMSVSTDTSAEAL
Procedure: as §1

[5] = target: T3, Human Cannabinoid 1 (CB1) (Homo sapiens, UniProt P21554); assay: Ca2+i response to 2-AG (dose-response with or without compound), CB1 GqΔGi/CHO cells, DSIS flow cytometry; type: cell-based; conditions: 2-AG with or without compound (FIG. 2)
T3 construct: expressed in transfected cells; host or cells: CHO cells stably expressing the GqΔGi chimera
T3 sequence (P21554 whole entry): as the sequence (P21554 whole entry) above
Description: cDNA for the G protein GqΔGi chimera was generated by PCR and inserted into the polylinker region of the pcDNA3/hygro+vector (Invitrogen). Stable expression of GqΔGi chimera protein in CHO cell line was generated under hygromycin selection. Human Cannabinoid 1 (CB1) cDNA was inserted into the polylinker region of the pcDNA3.1/(+) vector (Invitrogen) and DNA was introduced into the GqΔGi/CHO cell line by Lipofectamine reagent (Invitrogen). Cell lines stably expressing the CB receptor with Gq ΔGi chimera protein were generated by double selection with hygromycin and G418 (Coward, P., et al. 1999. Chimeric G proteins allow a high-throughput signaling assay of Gi-coupled receptors. Anal Biochem. 270:242-8).
CB1 Cells were plated 24-48 hours in advance, and were harvested with trypsin at ˜80% confluency. […]
The probe-loaded CB1 and Control cell mixture was placed in the Cell Suspension System on the DSIS where they were continuously rocked to keep them in a suspended state. […] The DSIS software, NVS Sampler, recorded a timing file and the CyAn software, Summit, recorded a data file. These two files were then compiled and analyzed by our proprietary software, NVS Analyzer, to determine the percent of cells that responded to each concentration. The data was transferred to GraphPAD Prism for a non-linear regression curve fit that determined the EC50. […]

CB2 receptor = target: T4, CB2 receptor (Homo sapiens, UniProt P34972); assay: Ca2+i response to 2-AG (dose-response with or without compound), CB2 receptor bearing cells; type: cell-based; conditions: CB2 receptor bearing cells (FIG. 2)
T4 construct: host or cells: CB2 receptor bearing cells
T4 sequence (P34972 whole entry): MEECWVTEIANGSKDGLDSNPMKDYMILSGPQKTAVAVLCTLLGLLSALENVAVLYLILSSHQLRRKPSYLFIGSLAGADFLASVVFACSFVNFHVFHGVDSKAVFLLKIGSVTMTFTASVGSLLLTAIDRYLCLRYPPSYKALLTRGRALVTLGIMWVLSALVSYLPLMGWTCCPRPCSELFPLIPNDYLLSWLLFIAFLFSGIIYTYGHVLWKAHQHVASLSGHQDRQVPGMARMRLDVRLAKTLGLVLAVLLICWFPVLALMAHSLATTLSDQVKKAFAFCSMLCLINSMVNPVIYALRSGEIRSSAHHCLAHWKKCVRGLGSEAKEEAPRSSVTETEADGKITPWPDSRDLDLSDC

human CB1 receptors [6] = target: T1, human CB1 receptors; assay: [35S]GTPγS binding assay, CHO-k1 cell membranes; type: biochemical
Procedure: [^35S]GTPγS binding assays were performed with CHO-k1 cell membranes stably expressing human CB1 receptors in 96-well ScintiPlate (PerkinElmer). The membranes (12.5 μg/well) were preincubated with compound 7 in the binding buffer (50 mM Tris-HCl, pH 7.4, 100 mM NaCl, 3 mM MgCl2, 0.2 mM EDTA, 0.2% BSA and 10 μM GDP) at 30° C. for 30 min, then added various concentrations of agonists (WIN 55212-2 or CP 55,940) and [^35S]GTPγS (0.2 nM) in a final volume of 200 μl. Reactions were carried out at 30° C. for 60 min, followed by centrifugation of plate at […] for 15 min. After removing supernatant, the radioactivity was quantitated on a TopCounter.

Row | SMILES | weight reduction as compared to vehicle on day 29 [1] | 24 hour body weight change versus vehicle ([2]; one-way ANOVA (FIG. 10)) | daily food intake versus vehicle ([2]; one-way ANOVA (FIG. 15)) | body weight versus vehicle ([2]; one-way ANOVA (FIG. 16)) | inhibition of binding of [3H]CP 55,940 (human CB1 receptors [3]) | inhibition of binding of [3H]CP 55,940 [4] | effect on the 2-AG dose response (Ca2+i) [5] | effect on the 2-AG dose response (Ca2+i) (CB2 receptor) | pA2 estimation using CP 55940 as an agonist (human CB1 receptors [6]; CB1 cell line membranes (FIG. 4)) | antagonist versus inverse agonist activity in [35S]GTPγS binding (human CB1 receptors [6]; response dropped below basal levels (FIG. 5))
1 | Cc1c(C(=O)NN2CCCCC2)nn(-c2ccc(Cl)cc2Cl)c1-c1ccc(Cl)cc1 [Rimonabant] | statistically significant weight reduction | No significant differences versus vehicle | No significant differences versus vehicle | No significant differences versus vehicle | – | – | – | – | – | –
2 | Fc1ccc(C(OCCCc2c[nH]cn2)c2ccc(F)cc2)cc1 [compound 7] | – | – | – | – | partially inhibited | almost fully inhibited | right shift | No effect | did not support an allosteric effect | inverse agonist activity
